Tests used:
[1] = compound: CCN1CCN(Cc2ccc(Nc3ncc(F)c(-c4cc(F)c5nc(C)n(C(C)C)c5c4)n3)nc2)CC1; test: increase in dead-cell fraction, 72 h; higher = more death;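 further: breast cancer cell lines in 384-well plates, stained with Hoechst plus LIVE/DEAD far red dye and imaged, cells above an LDR intensity threshold counted dead, Hoechst-negative corpses included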
Flavopiridol [2] = compound: T1, CN1CC[C@H](c2c(O)cc(O)c3c(=O)cc(-c4ccccc4Cl)oc23)[C@H](O)C1 [Flavopiridol]; test: as above
LEE011/Ribociclib = compound: CN(C)C(=O)c1cc2cnc(Nc3ccc(N4CCNCC4)cn3)nc2n1C1CCCC1 [LEE011/Ribociclib]; test: as above
[3] = compound: CCc1cnn2c(NCc3ccc[n+]([O-])c3)cc(N3CCCC[C@H]3CCO)nc12; test: as above
BSJ-03-123 = compound: CC(=O)c1c(C)c2cnc(Nc3ccc(N4CCN(CCOCCOCCOCCNC(=O)COc5cccc6c5C(=O)N(C5CCC(=O)NC5=O)C6=O)CC4)cn3)nc2n(C2CCCC2)c1=O [BSJ-03-123]; test: as above
Neratinib/HKI272 = compound: CCOc1cc2ncc(C#N)c(Nc3ccc(OCc4ccccn4)c(Cl)c3)c2cc1NC(=O)/C=C/CN(C)C [Neratinib/HKI272]; test: as above
THZ1 [4] = compound: T2, CN(C)C/C=C/C(=O)Nc1ccc(C(=O)Nc2cccc(Nc3ncc(Cl)c(-c4c[nH]c5ccccc45)n3)c2)cc1 [THZ1]; test: as above
[5] = compound: CC(=O)c1c(C)c2cnc(Nc3ccc(N4CCNCC4)cn3)nc2n(C2CCCC2)c1=O; test: as above
Flavopiridol [6] = compound: T1, Flavopiridol; test: GR value, 72 h; higher = faster growth (1 = untreated, <0 = killing);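 further: breast cancer and non-malignant breast epithelial lines, nine half-log doses, viable cells counted by Hoechst and LIVE/DEAD dye imaging versus time-zero plates and DMSO controls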
THZ1 [7] = compound: T2, THZ1; test: as above
[8] = compound: CC(=O)c1c(C)c2cnc(Nc3ccc(N4CCNCC4)cn3)nc2n(C2CCCC2)c1=O; test: as above
THZ531 = compound: CN(C)C/C=C/C(=O)Nc1ccc(C(=O)N2CCC[C@@H](Nc3ncc(Cl)c(-c4c[nH]c5ccccc45)n3)C2)cc1 [THZ531]; test: as above

For HCC1395, the “increase in dead-cell fraction” value ([1]; 0.001 µM) was 0.0055, the “increase in dead-cell fraction” value ([1]; 0.003162 µM) was -0.0031 and the “increase in dead-cell fraction” value ([1]; 0.01 µM) was 0.0123. For the same cell line, the “increase in dead-cell fraction” value ([1]; 0.03162 µM) was 0.0119, the “increase in dead-cell fraction” value ([1]; 0.1 µM) was 0.0163 and the “increase in dead-cell fraction” value ([1]; 0.3162 µM) was 0.0184. The “increase in dead-cell fraction” value ([1]; 1 µM) was 0.0343, the “increase in dead-cell fraction” value ([1]; 3.162 µM) was 0.0632 and the “increase in dead-cell fraction” value ([1]; 10 µM) was 0.447. The “increase in dead-cell fraction” value (Flavopiridol [2]; 0.0001 µM) was -0.0165, the “increase in dead-cell fraction” value (Flavopiridol [2]; 0.0003162 µM) was 0.0036 and the “increase in dead-cell fraction” value (Flavopiridol [2]; 0.001 µM) was -0.001. For the same cell line, the “increase in dead-cell fraction” value (Flavopiridol [2]; 0.003162 µM) was 0.0024, the “increase in dead-cell fraction” value (Flavopiridol [2]; 0.01 µM) was 0.0179 and the “increase in dead-cell fraction” value (Flavopiridol [2]; 0.03162 µM) was -0.0053. For the same cell line, the “increase in dead-cell fraction” value (Flavopiridol [2]; 0.1 µM) was -0.0066, the “increase in dead-cell fraction” value (Flavopiridol [2]; 0.3162 µM) was 0.0777 and the “increase in dead-cell fraction” value (Flavopiridol [2]; 1 µM) was 0.306. The “increase in dead-cell fraction” value (LEE011/Ribociclib; 0.001 µM) was -0.0137, the “increase in dead-cell fraction” value (LEE011/Ribociclib; 0.003162 µM) was 0.0153 and the “increase in dead-cell fraction” value (LEE011/Ribociclib; 0.01 µM) was 0.0143. The “increase in dead-cell fraction” value (LEE011/Ribociclib; 0.03162 µM) was 0.0111, the “increase in dead-cell fraction” value (LEE011/Ribociclib; 0.1 µM) was 0.0234 and the “increase in dead-cell fraction” value (LEE011/Ribociclib; 0.3162 µM) was 0.0259. For the same cell line, the “increase in dead-cell fraction” value (LEE011/Ribociclib; 1 µM) was 0.0472, the “increase in dead-cell fraction” value (LEE011/Ribociclib; 3.162 µM) was 0.0158 and the “increase in dead-cell fraction” value (LEE011/Ribociclib; 10 µM) was 0.0578. For the same cell line, the “increase in dead-cell fraction” value ([3]; 0.0001 µM) was 0.005, the “increase in dead-cell fraction” value ([3]; 0.0003162 µM) was -0.0006 and the “increase in dead-cell fraction” value ([3]; 0.001 µM) was -0.004. For the same cell line, the “increase in dead-cell fraction” value ([3]; 0.003162 µM) was 0.0091, the “increase in dead-cell fraction” value ([3]; 0.01 µM) was 0.0238 and the “increase in dead-cell fraction” value ([3]; 0.03162 µM) was 0.263. For the same cell line, the “increase in dead-cell fraction” value ([3]; 0.1 µM) was 0.368, the “increase in dead-cell fraction” value ([3]; 0.3162 µM) was 0.378 and the “increase in dead-cell fraction” value ([3]; 1 µM) was 0.387. The “increase in dead-cell fraction” value (BSJ-03-123; 0.001 µM) was 0.0154, the “increase in dead-cell fraction” value (BSJ-03-123; 0.003162 µM) was 0.0016 and the “increase in dead-cell fraction” value (BSJ-03-123; 0.01 µM) was 0.0046. The “increase in dead-cell fraction” value (BSJ-03-123; 0.03162 µM) was 0.0156, the “increase in dead-cell fraction” value (BSJ-03-123; 0.1 µM) was 0.0199 and the “increase in dead-cell fraction” value (BSJ-03-123; 0.3162 µM) was 0.0113. For the same cell line, the “increase in dead-cell fraction” value (BSJ-03-123; 1 µM) was 0.0316, the “increase in dead-cell fraction” value (BSJ-03-123; 3.162 µM) was 0.0201 and the “increase in dead-cell fraction” value (BSJ-03-123; 10 µM) was 0.13. The “increase in dead-cell fraction” value (Neratinib/HKI272; 0.0003162 µM) was 0.0064, the “increase in dead-cell fraction” value (Neratinib/HKI272; 0.001 µM) was -0.004 and the “increase in dead-cell fraction” value (Neratinib/HKI272; 0.003162 µM) was 0.0024. The “increase in dead-cell fraction” value (Neratinib/HKI272; 0.01 µM) was 0.0027, the “increase in dead-cell fraction” value (Neratinib/HKI272; 0.03162 µM) was -0.0039 and the “increase in dead-cell fraction” value (Neratinib/HKI272; 0.1 µM) was 0.0013. For the same cell line, the “increase in dead-cell fraction” value (Neratinib/HKI272; 0.3162 µM) was 0.0091, the “increase in dead-cell fraction” value (Neratinib/HKI272; 1 µM) was 0.012 and the “increase in dead-cell fraction” value (Neratinib/HKI272; 3.162 µM) was 0.141. For the same cell line, the “increase in dead-cell fraction” value (THZ1 [4]; 0.0001 µM) was -0.017, the “increase in dead-cell fraction” value (THZ1 [4]; 0.0003162 µM) was -0.002 and the “increase in dead-cell fraction” value (THZ1 [4]; 0.001 µM) was -0.0182. For the same cell line, the “increase in dead-cell fraction” value (THZ1 [4]; 0.003162 µM) was 0.0057, the “increase in dead-cell fraction” value (THZ1 [4]; 0.01 µM) was 0.0001 and the “increase in dead-cell fraction” value (THZ1 [4]; 0.03162 µM) was 0.0489. The “increase in dead-cell fraction” value (THZ1 [4]; 0.1 µM) was 0.193, the “increase in dead-cell fraction” value (THZ1 [4]; 0.3162 µM) was 0.25 and the “increase in dead-cell fraction” value (THZ1 [4]; 1 µM) was 0.469. The “increase in dead-cell fraction” value ([5]; 0.0003162 µM) was -0.0002, the “increase in dead-cell fraction” value ([5]; 0.001 µM) was -0.0025 and the “increase in dead-cell fraction” value ([5]; 0.003162 µM) was -0.0071. For the same cell line, the “increase in dead-cell fraction” value ([5]; 0.01 µM) was 0.0129, the “increase in dead-cell fraction” value ([5]; 0.03162 µM) was 0.0232 and the “increase in dead-cell fraction” value ([5]; 0.1 µM) was 0.0283. The “increase in dead-cell fraction” value ([5]; 0.3162 µM) was 0.0367, the “increase in dead-cell fraction” value ([5]; 1 µM) was 0.0326 and the “increase in dead-cell fraction” value ([5]; 3.162 µM) was 0.0325. For the same cell line, the GR value (Flavopiridol [6]; 0.0001 µM) was 1.02 GR, the GR value (Flavopiridol [6]; 0.0003162 µM) was 0.885 GR and the GR value (Flavopiridol [6]; 0.001 µM) was 0.933 GR. For the same cell line, the GR value (Flavopiridol [6]; 0.003162 µM) was 0.826 GR, the GR value (Flavopiridol [6]; 0.01 µM) was 0.75 GR and the GR value (Flavopiridol [6]; 0.03162 µM) was 0.973 GR. It also gave a GR value (Flavopiridol [6]; 0.1 µM) of 0.683 GR, a GR value (Flavopiridol [6]; 0.3162 µM) of -0.0127 GR and a GR value (Flavopiridol [6]; 1 µM) of -0.672 GR. For the same cell line, the GR value (THZ1 [7]; 0.0001 µM) was 1 GR, the GR value (THZ1 [7]; 0.0003162 µM) was 1.01 GR and the GR value (THZ1 [7]; 0.001 µM) was 0.982 GR. For the same cell line, the GR value (THZ1 [7]; 0.003162 µM) was 0.985 GR, the GR value (THZ1 [7]; 0.01 µM) was 1.04 GR and the GR value (THZ1 [7]; 0.03162 µM) was 0.241 GR. The GR value (THZ1 [7]; 0.1 µM) was -0.42 GR, the GR value (THZ1 [7]; 0.3162 µM) was -0.546 GR and the GR value (THZ1 [7]; 1 µM) was -0.795 GR. It also gave a GR value ([8]; 0.0003162 µM) of 1.12 GR, a GR value ([8]; 0.001 µM) of 1.07 GR and a GR value ([8]; 0.003162 µM) of 1.06 GR. The GR value ([8]; 0.01 µM) was 0.944 GR, the GR value ([8]; 0.03162 µM) was 0.702 GR and the GR value ([8]; 0.1 µM) was 0.495 GR. The GR value ([8]; 0.3162 µM) was 0.444 GR, the GR value ([8]; 1 µM) was 0.386 GR and the GR value ([8]; 3.162 µM) was 0.324 GR. The GR value (THZ531; 0.0001 µM) was 1.14 GR, the GR value (THZ531; 0.0003162 µM) was 0.962 GR and the GR value (THZ531; 0.001 µM) was 0.995 GR. The GR value (THZ531; 0.003162 µM) was 0.947 GR, the GR value (THZ531; 0.01 µM) was 0.976 GR and the GR value (THZ531; 0.03162 µM) was 0.76 GR. For the same cell line, the GR value (THZ531; 0.1 µM) was 0.408 GR, the GR value (THZ531; 0.3162 µM) was -0.251 GR and the GR value (THZ531; 1 µM) was -0.587 GR.

— the supplement of paper PMC9663587
